Test results taken from US8759535B2, “Substituted fused imidazole derivatives, pharmaceutical compositions, and methods of use thereof” (High Point Pharmaceuticals, LLC, priority 2010, dated 2014).
Where a name gives a salt, the structure may show the parent alone.

The compounds below were run on HMOX1 (assay: HMOX1 Protein Assay (immunostaining of HO-1 in NHLF cells, GE InCell 1000)). Conditions: Homo sapiens, fold change above DMSO treated cells, 3 μM compound (asterisk), 16 h.
Format: cell-based
Outline: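 Fold induction of HO-1 over vehicle, normally at 5 μM compound (asterisk marks 3 μM), in 0.8% DMSO medium. Normal human lung fibroblasts were treated 16 h, then paraformaldehyde-fixed, anti-HO-1/Alexa 488 stained with Hoechst, and read by high-content imaging.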
With `CN1CCN(CCCNC(=O)c2ccc3c(c2)nc(Nc2nc4ccc(C(F)(F)F)cc4s2)n3C)CC1` [Example 357, 1-Methyl-2-(6-trifluoromethyl-benzothiazol-2-ylamino)-1H-benzoimidazole-5-carboxylic acid [3-(4-methyl-piperazin-1-yl)-propyl]-amide] the fold induction at 3 µM was 22.
Compound `Cn1c(Nc2nc3ccc(OC(F)(F)F)cc3s2)nc2cc(C(=O)NCCCN)ccc21` [Example 344, 1-Methyl-2-(6-trifluoromethoxy-benzothiazol-2-ylamino)-1H-benzoimidazole-5-carboxylic acid (3-amino-propyl)-amide hydrochloride] has a fold induction at 3 µM of 25.7.

Same assay, conditions: Homo sapiens, fold change above DMSO treated cells, 5 μM compound, 16 h
`Cn1c(Nc2nc3ccc(OC(F)(F)F)cc3s2)nc2cc(C(=O)NCCCS(C)(=O)=O)ccc21` [Example 110, 1-Methyl-2-(6-trifluoromethoxy-benzothiazol-2-ylamino)-1H-benzimidazole-5-carboxylic acid (3-methanesulfonyl-propyl)-amide] showed a fold induction at 5 µM of 26.3.
`Cn1c(Nc2nc3ccc(Cl)cc3s2)nc2cc(C(=O)N[C@@H]3CCNC3)ccc21` [Example 290, 2-(6-Chloro-benzothiazol-2-ylamino)-1-methyl-1H-benzoimidazole-5-carboxylic acid (R)-pyrrolidin-3-ylamide hydrochloride] was tested, and the fold induction at 5 µM was 22.5.
`Cn1c(Nc2nc3ccc(OC(F)(F)F)cc3s2)nc2cc(C(=O)NCCOCCNS(C)(=O)=O)ccc21` [Example 276, 1-Methyl-2-(6-trifluoromethoxy-benzothiazol-2-ylamino)-1H-benzoimidazole-5-carboxylic acid [2-(2-methanesulfonylamino-ethoxy)-ethyl]-amide] showed a fold induction at 5 µM of 61.2.
With `Cn1c(Nc2nc3ccc(OC(F)(F)F)cc3s2)nc2cc(C(=O)NC[C@H]3CC[C@H](CO)CC3)ccc21` [Example 254, 1-Methyl-2-(6-trifluoromethoxy-benzothiazol-2-ylamino)-1H-benzoimidazole-5-carboxylic acid (trans-4-hydroxymethyl-cyclohexylmethyl)-amide] the fold induction at 5 µM was 47.4.
`Cn1c(Nc2nc3ccc(OC(F)(F)F)cc3s2)nc2cc(C(=O)O)cnc21` [Example 72, 3-Methyl-2-(6-trifluoromethoxy-benzothiazol-2-ylamino)-3H-imidazo[4,5-b]pyridine-6-carboxylic acid] was tested, and the fold induction at 5 µM was 11.9.
With `CNC(=O)c1ccc2c(c1)nc(Nc1nc3ccc(OC(F)(F)F)cc3s1)n2C(C)C` [Example 160, 1-Isopropyl-2-(6-trifluoromethoxy-benzothiazol-2-ylamino)-1H-benzoimidazole-5-carboxylic acid methylamide] the fold induction at 5 µM was 22.9.
In the case of `Cn1c(Nc2nc3ccc(OC(F)(F)F)cc3s2)nc2cc(C(=O)NCCOCCOCCO)ccc21` [Example 256, 1-Methyl-2-(6-trifluoromethoxy-benzothiazol-2-ylamino)-1H-benzoimidazole-5-carboxylic acid {2-[2-(2-hydroxy-ethoxy)-ethoxy]-ethyl}-amide], the fold induction at 5 µM is reported as 48.
`Cn1c(Nc2nc3ccc(OC(F)(F)F)cc3s2)nc2cc(C(=O)NCCOCC(F)F)ccc21` [Example 258, 1-Methyl-2-(6-trifluoromethoxy-benzothiazol-2-ylamino)-1H-benzoimidazole-5-carboxylic acid [2-(2,2-difluoro-ethoxy)-ethyl]-amide] was tested, and the fold induction at 5 µM was 24.6.
`Cn1c(Nc2nc3ccc(OC(F)(F)F)cc3s2)nc2cc(C(=O)NCCc3ccc(O)cc3)ccc21` [Example 251, 1-Methyl-2-(6-trifluoromethoxy-benzothiazol-2-ylamino)-1H-benzoimidazole-5-carboxylic acid [2-(4-hydroxy-phenyl)-ethyl]-amide] gave a fold induction at 5 µM of 29.6.
`Cn1c(Nc2nc3ccc(OC(F)(F)F)cc3s2)nc2cc(C(=O)NCC(=O)N3CCC[C@H]3CO)ccc21` [Example 406, 1-Methyl-2-(6-trifluoromethoxy-benzothiazol-2-ylamino)-1H-benzoimidazole-5-carboxylic acid [2-((S)-2-hydroxymethyl-pyrrolidin-1-yl)-2-oxo-ethyl]-amide] showed a fold induction at 5 µM of 31.
